Data taken from PubChem BioAssay (NCI).
“And” between values parts separate entries of the source, which are not always exact repeats. Equal values may be shown once.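 In this assay, cells in 96-well plates receive the compound at five concentrations for 48 hours. Endpoints are linearly interpolated between the surrounding concentrations. GI50 is the concentration that inhibits growth by half. TGI: concentration producing complete growth inhibition.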

Legend:
Experiment in all cases: NCI anticancer screen, dose series, 48 h; in the data active means GI50 below about 0.43 µM; inactive means the rest
COLO 205 colon = tested on: COLO 205 colon
EKVX NSCLC = tested on: EKVX NSCLC
HCT-15 colon = tested on: HCT-15 colon
IGROV1 ovarian = tested on: IGROV1 ovarian
MDA-N = tested on: MDA-N
NCI-H23 lung = tested on: NCI-H23 lung
OVCAR-5 ovarian = tested on: OVCAR-5 ovarian
OVCAR-8 ovarian = tested on: OVCAR-8 ovarian
SK-MEL-28 melanoma = tested on: SK-MEL-28 melanoma
T-47D breast = tested on: T-47D breast

O=C1C/C(=C\O)C(=O)c2ccccc2N1
> 100 µM: TGI (COLO 205 colon) | TGI (EKVX NSCLC) | TGI (HCT-15 colon) | TGI (IGROV1 ovarian) | TGI (MDA-N) | TGI (NCI-H23 lung) | TGI (OVCAR-5 ovarian) | TGI (OVCAR-8 ovarian) | TGI (SK-MEL-28 melanoma) | TGI (T-47D breast)

O=C1c2ccccc2S(=O)(=O)c2ccccc21
> 100 µM: TGI (COLO 205 colon) | TGI (EKVX NSCLC) | TGI (HCT-15 colon) | TGI (IGROV1 ovarian) | TGI (MDA-N) | TGI (NCI-H23 lung) | TGI (OVCAR-5 ovarian) | TGI (OVCAR-8 ovarian) | TGI (SK-MEL-28 melanoma) | TGI (T-47D breast)

CCOC(=O)/C=C1\Nc2ccccc2C12CCc1c([nH]c3ccccc13)C2C(=O)OCC (configuration not stated)
81 µM: TGI (MDA-N)
30.2 µM: TGI (COLO 205 colon)
> 100 µM: TGI (EKVX NSCLC) | TGI (HCT-15 colon) | TGI (IGROV1 ovarian) | TGI (NCI-H23 lung) | TGI (OVCAR-5 ovarian) | TGI (OVCAR-8 ovarian) | TGI (SK-MEL-28 melanoma) | TGI (T-47D breast)

CCOC(=O)C1C/C(C)=C(/C)SCCCS1 (configuration not stated)
> 100 µM: TGI (COLO 205 colon) | TGI (EKVX NSCLC) | TGI (HCT-15 colon) | TGI (IGROV1 ovarian) | TGI (MDA-N) | TGI (NCI-H23 lung) | TGI (OVCAR-5 ovarian) | TGI (OVCAR-8 ovarian) | TGI (SK-MEL-28 melanoma) | TGI (T-47D breast)

Cc1cnc(Cl)nc1C(C#N)c1nc2ccccc2n1C (configuration not stated)
57.1 µM: TGI (EKVX NSCLC)
> 100 µM: TGI (COLO 205 colon) | TGI (HCT-15 colon) | TGI (IGROV1 ovarian) | TGI (MDA-N) | TGI (NCI-H23 lung) | TGI (OVCAR-5 ovarian) | TGI (OVCAR-8 ovarian) | TGI (SK-MEL-28 melanoma) | TGI (T-47D breast)

O=[N+]([O-])c1ccc2nc3ccc([N+](=O)[O-])cn3c2c1
> 100 µM: TGI (COLO 205 colon) | TGI (EKVX NSCLC) | TGI (HCT-15 colon) | TGI (IGROV1 ovarian) | TGI (MDA-N) | TGI (NCI-H23 lung) | TGI (OVCAR-5 ovarian) | TGI (OVCAR-8 ovarian) | TGI (SK-MEL-28 melanoma) | TGI (T-47D breast)

CCCCCCCCCCCCCCCCP(=O)(O)OP(=O)(O)OCC1OC(n2ccc(N)nc2=O)C(O)C1O (configuration not stated)
inactive: GI50 (COLO 205 colon) 54.7 µM and 19 µM | GI50 (HCT-15 colon) 97.5 µM and 19.3 µM | GI50 (IGROV1 ovarian) 62.4 µM and 26 µM | GI50 (MDA-N) > 100 µM and 40.4 µM | GI50 (NCI-H23 lung) > 100 µM and 13.9 µM
> 100 µM: TGI (COLO 205 colon) | TGI (EKVX NSCLC) | TGI (HCT-15 colon) | TGI (IGROV1 ovarian) | TGI (MDA-N) | TGI (NCI-H23 lung) | TGI (SK-MEL-28 melanoma) | TGI (T-47D breast)
65.3 µM and > 64.4 µM: TGI (OVCAR-5 ovarian)
> 100 µM and 51.3 µM: TGI (OVCAR-8 ovarian)

Oc1ccc2ccccc2c1-c1nnc(CCCCCCCCc2nnc(-c3c(O)ccc4ccccc34)o2)o1
6.33 µM and > 62.2 µM: TGI (NCI-H23 lung)
> 68.5 µM: TGI (SK-MEL-28 melanoma)
inactive: GI50 (COLO 205 colon) 5.99 µM | GI50 (EKVX NSCLC) 6.7 µM | GI50 (HCT-15 colon) 0.563 µM | GI50 (IGROV1 ovarian) 11.6 µM | GI50 (MDA-N) 2.67 µM | GI50 (NCI-H23 lung) 1.22 µM | GI50 (OVCAR-5 ovarian) 19.9 µM | GI50 (SK-MEL-28 melanoma) > 25 µM | GI50 (T-47D breast) 1.67 µM
25 µM and 98.6 µM: TGI (IGROV1 ovarian)
active: GI50 (OVCAR-8 ovarian) 0.317 µM
15 µM and > 44.9 µM: TGI (COLO 205 colon)
25 µM and > 100 µM: TGI (EKVX NSCLC) | TGI (HCT-15 colon) | TGI (OVCAR-5 ovarian) | TGI (T-47D breast)

COc1cn2c(cc1=O)COc1ccc(-c3ccccc3)cc1-2
> 83.3 µM: TGI (T-47D breast)
> 100 µM: TGI (COLO 205 colon) | TGI (EKVX NSCLC) | TGI (HCT-15 colon) | TGI (IGROV1 ovarian) | TGI (MDA-N) | TGI (NCI-H23 lung) | TGI (OVCAR-5 ovarian) | TGI (OVCAR-8 ovarian) | TGI (SK-MEL-28 melanoma)

CC1(C)CC(=O)C(/C=N/c2nc(-c3ccc(Br)cc3)cs2)=C(O)C1
> 100 µM: TGI (EKVX NSCLC) | TGI (IGROV1 ovarian) | TGI (MDA-N) | TGI (OVCAR-5 ovarian) | TGI (OVCAR-8 ovarian) | TGI (SK-MEL-28 melanoma) | TGI (T-47D breast)
49.7 µM: TGI (HCT-15 colon)
99.2 µM: TGI (COLO 205 colon)
83.9 µM: TGI (NCI-H23 lung)

CC1(C)OC[C@@H](/C=C\CCO[Si](c2ccccc2)(c2ccccc2)C(C)(C)C)N1C(=O)c1ccccc1
21.9 µM: TGI (COLO 205 colon)
25.8 µM: TGI (EKVX NSCLC)
96.7 µM: TGI (NCI-H23 lung)
> 100 µM: TGI (HCT-15 colon) | TGI (IGROV1 ovarian) | TGI (MDA-N) | TGI (OVCAR-8 ovarian) | TGI (SK-MEL-28 melanoma) | TGI (T-47D breast)
46 µM: TGI (OVCAR-5 ovarian)

CCCCCCCCCCCCOC1C(COCCN2CCCC2)OC2OC(C)(C)OC21 (configuration not stated)
3.48 µM: TGI (NCI-H23 lung)
4.11 µM: TGI (T-47D breast)
10.2 µM: TGI (EKVX NSCLC)
3.12 µM: TGI (SK-MEL-28 melanoma)
2.88 µM: TGI (OVCAR-5 ovarian)
3.22 µM: TGI (COLO 205 colon)
3.17 µM: TGI (HCT-15 colon)
3.03 µM: TGI (OVCAR-8 ovarian)
2.76 µM: TGI (MDA-N)
3.1 µM: TGI (IGROV1 ovarian)

CC(=O)N(C(C)=O)n1c(Cc2ccc(Cl)cc2)nn(C(C)=O)c1=O
> 100 µM: TGI (COLO 205 colon) | TGI (EKVX NSCLC) | TGI (HCT-15 colon) | TGI (IGROV1 ovarian) | TGI (MDA-N) | TGI (NCI-H23 lung) | TGI (OVCAR-5 ovarian) | TGI (OVCAR-8 ovarian) | TGI (SK-MEL-28 melanoma) | TGI (T-47D breast)

COC(=O)Cc1c(C2=Nc3ccccc3C2(O)CC(=O)OC)[nH]c2ccccc12 (configuration not stated)
> 100 µM: TGI (EKVX NSCLC) | TGI (HCT-15 colon) | TGI (IGROV1 ovarian) | TGI (MDA-N) | TGI (NCI-H23 lung) | TGI (OVCAR-5 ovarian) | TGI (OVCAR-8 ovarian) | TGI (SK-MEL-28 melanoma) | TGI (T-47D breast)
52.3 µM: TGI (COLO 205 colon)

CSc1c(C(C)=O)c(O)n(-c2ccc(Cl)cc2)c(=O)c1C#N
99.5 µM: TGI (HCT-15 colon)
65.6 µM: TGI (COLO 205 colon)
> 100 µM: TGI (EKVX NSCLC) | TGI (MDA-N) | TGI (NCI-H23 lung) | TGI (OVCAR-5 ovarian) | TGI (OVCAR-8 ovarian) | TGI (SK-MEL-28 melanoma) | TGI (T-47D breast)
